# In article PMC11818404, “Experimental and Computational Investigation of the Target and Mechanisms of Gelsemium Alkaloids in the Central Nervous System” (International Journal of Molecular Sciences, 2025):
# Where two headings read alike, the source gives them in different places.
# Assays:
# [1] = target: T1, α1β2γ2 GABAAR (Homo sapiens, UniProt P14867+P18507+P47870); test: Whole-cell patch-clamp of GABA-evoked currents, transfected HEK293 cells; format: cell-based; details: for percentage change in peak current modulation / IC50: GABAAR; for percentage change in peak current modulation: alkaloid 300 µM co-applied with subsaturated GABA, mean ± SE; for Hillslope: GABAAR concentration-response curve; for IC50: reduction of GABA-evoked current, n = 4
# T1 construct: expressed in transfected cells; host or cells: HEK293
# T1 sequence (P18507 40-475): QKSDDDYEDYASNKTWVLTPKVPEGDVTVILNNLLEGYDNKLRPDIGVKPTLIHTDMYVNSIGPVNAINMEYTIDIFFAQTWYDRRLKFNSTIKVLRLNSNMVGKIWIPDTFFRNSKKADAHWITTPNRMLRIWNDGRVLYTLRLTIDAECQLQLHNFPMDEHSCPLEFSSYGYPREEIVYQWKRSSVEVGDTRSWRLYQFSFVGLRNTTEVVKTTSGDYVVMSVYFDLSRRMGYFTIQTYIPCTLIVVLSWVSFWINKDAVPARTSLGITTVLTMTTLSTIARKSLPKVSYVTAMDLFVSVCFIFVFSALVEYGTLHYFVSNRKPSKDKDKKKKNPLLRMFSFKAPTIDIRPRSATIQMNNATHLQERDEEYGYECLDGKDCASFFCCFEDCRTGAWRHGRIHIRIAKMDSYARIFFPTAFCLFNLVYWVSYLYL
# T1 sequence (P14867 28-456): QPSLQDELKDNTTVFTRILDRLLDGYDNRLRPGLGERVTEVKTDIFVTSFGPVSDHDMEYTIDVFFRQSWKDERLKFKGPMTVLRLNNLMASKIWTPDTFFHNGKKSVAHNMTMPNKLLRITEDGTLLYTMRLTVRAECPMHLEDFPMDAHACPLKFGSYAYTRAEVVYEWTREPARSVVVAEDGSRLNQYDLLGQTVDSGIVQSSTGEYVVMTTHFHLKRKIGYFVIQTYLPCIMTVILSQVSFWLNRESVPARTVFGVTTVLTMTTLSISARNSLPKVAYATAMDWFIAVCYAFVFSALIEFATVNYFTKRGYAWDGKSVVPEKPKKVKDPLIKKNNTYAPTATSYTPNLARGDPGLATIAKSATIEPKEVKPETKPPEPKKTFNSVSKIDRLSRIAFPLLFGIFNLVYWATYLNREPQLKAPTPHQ
# T1 sequence (P47870 26-512): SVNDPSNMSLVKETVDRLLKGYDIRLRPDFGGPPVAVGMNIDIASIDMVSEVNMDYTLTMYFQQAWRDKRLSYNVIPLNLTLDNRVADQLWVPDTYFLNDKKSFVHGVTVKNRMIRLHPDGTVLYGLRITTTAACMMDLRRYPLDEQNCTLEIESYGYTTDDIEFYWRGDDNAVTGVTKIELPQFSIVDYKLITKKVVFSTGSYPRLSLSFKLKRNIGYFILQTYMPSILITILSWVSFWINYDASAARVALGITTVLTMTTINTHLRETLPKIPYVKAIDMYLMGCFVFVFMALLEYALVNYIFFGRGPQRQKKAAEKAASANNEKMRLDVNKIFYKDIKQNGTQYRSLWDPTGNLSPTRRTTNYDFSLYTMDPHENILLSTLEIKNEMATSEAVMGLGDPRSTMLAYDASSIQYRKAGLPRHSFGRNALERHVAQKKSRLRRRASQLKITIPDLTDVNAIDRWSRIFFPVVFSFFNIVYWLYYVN
# [2] = target: T2, α1 GlyR (Homo sapiens, UniProt P23415); test: Whole-cell patch-clamp of glycine-evoked currents, transfected HEK293 cells; format: cell-based; details: for activity on GlyR currents (in words): GlyRs (α1 and α1β), single concentration 300 µM; for percentage change in peak current modulation: alkaloid 300 µM co-applied with subsaturated glycine, mean ± SE
# T2 construct: expressed in transfected cells; host or cells: HEK293
# T2 sequence (P23415 29-449 isoform P23415-2 limits assumed): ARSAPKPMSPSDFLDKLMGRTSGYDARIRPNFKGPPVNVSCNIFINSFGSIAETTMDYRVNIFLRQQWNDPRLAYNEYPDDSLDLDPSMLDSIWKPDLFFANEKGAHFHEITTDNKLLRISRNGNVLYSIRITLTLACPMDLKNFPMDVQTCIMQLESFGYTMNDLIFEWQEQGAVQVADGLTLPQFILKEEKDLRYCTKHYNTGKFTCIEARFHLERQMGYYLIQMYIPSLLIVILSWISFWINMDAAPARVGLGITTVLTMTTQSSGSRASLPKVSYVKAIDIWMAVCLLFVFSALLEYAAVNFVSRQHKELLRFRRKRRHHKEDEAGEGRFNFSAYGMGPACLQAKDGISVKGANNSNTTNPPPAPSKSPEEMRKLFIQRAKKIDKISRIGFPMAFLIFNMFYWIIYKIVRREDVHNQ
# Experimental: (§1) HEK293 cells were obtained from Beijing Aisiyipu Biotechnology Co. Cells were cultured in Dulbecco’s Modified Eagle Medium containing 10% fetal bovine serum, 800 µg/mL G418, 200 µg/mL hygromycin B, and 100 µg/mL Zeocin at 37 °C and 5% CO2. Cells were transfected with plasmids encoding the following proteins: (i). nAChRα7 (CHRNA7, NM_000746; RIC3, NM_024557), (ii) GABA-α1 (NM_000806), GABA-β2 (NM_021911), and GABA-γ2 (NM_198904), and (iii) GlyR α1 (NM_000171) and GlyR β (NM_000824). To obtain β-containing GlyRs, an α/β transfection ratio of 1:5 was used; for γ2-containing GABAARs, the ratio was 1:2:5 of α/β/γ2.
# (§2) For whole-cell recording, the […] contained 140 mM NaCl, 3.5 mM KCl, 1 mM MgCl2•6H2O, 2 mM CaCl2•2H2O, 10 mM D-glucose, 10 mM HEPES, and 1.25 mM NaH2PO4•2H2O, (pH 7.4). The […] solution contained 50 mM CsCl, 10 mM NaCl, 10 mM HEPES, 60 mM CsF, and 20 mM EGTA (pH 7.2). Briefly, during the diaphragm clamp operation, the glass capillary was drawn into a recording electrode using a microelectrode puller. Subsequently, the electrode filled with intracellular fluid was loaded into the microelectrode holder, and the cell-lined coverslip was placed in the recording bath under an inverted microscope, followed by manipulation of the microelectrode manipulator to immerse the electrode into the extracellular fluid under an inverted microscope. Electrode resistance (Rpip) was recorded, and the electrode was gently positioned on the cell surface with negative pressure applied to establish a GΩ-level high-resistance seal. Fast capacitance compensation was performed, followed by additional suction to breach the cell membrane and form a whole-cell recording. Finally, slow capacitance compensation was performed, and experimental parameters such as series resistance (Rs) were recorded. Leakage compensation was not provided. Whole-cell patch-clamp recordings were performed at −70 mV using HEKA EPC-10 (HEKA Elektronik GmbH, Reutlingen, Germany) amplifiers. Data acquisition was performed using the HEKA PatchMaster. We aimed to study the allosteric regulation of GABAAR and GlyR by Gelsemium alkaloids, so the effects of the alkaloids on Gly- or GABA-evoked currents were determined via co-application of subsaturated agonist concentrations (EC10 and EC50) together with the alkaloid. The EC50 for α1 GlyR was 30 µM, whereas the EC10 for α1β2γ2 GABAAR was 3.0 µM. The choice of specific agonist concentration was determined based on previous studies. We first examined the effects of each Gelsemium alkaloid at a concentration of 300 µM on channel currents. The peak receptor currents for subsaturated concentrations of specific agonists and the peak receptor currents after administration of each drug were recorded, and the modulation percentage was calculated for each drug. The modulation percentage was calculated using Equation (1):Percentage change = ((Ialkaloid − Iagonist)/Iagonist),(1) where Ialkaloid denotes the current in the presence of a given concentration of alkaloid, and Iagonist denotes the amplitude of the control glycine or GABA current elicited by the activation of a given receptor. To construct the concentration-response curve, six graded concentrations (1 µM, 3 µM, 10 µM, 30 µM, 100 µM, and 300 µM) of each Gelsemium alkaloid were tested. The concentration-response curve parameters for alkaloid inhibition were obtained from the curve of the normalized concentration-response data points fitted using Equation (2):Iagonist = Imax (agonist)nH/((agonist)nH + (EC50) nH), (2) where Iagonist is the current in the presence of a given subsaturated concentration of GABA, and EC50 is the concentration required for the half-maximal response. Each drug was repeated four times per concentration, and the data were expressed as the mean ± SE All electrophysiological tests performed at 20 °C.
# [3] = target: T3, α1β GlyR (Homo sapiens, UniProt P23415); test: as above; format: cell-based; details: α1βGlyR; alkaloid 300 µM co-applied with subsaturated glycine; mean ± SE
# T3 construct: expressed in transfected cells; host or cells: HEK293
# T3 sequence (P48167 23-497 partner, one chain of several): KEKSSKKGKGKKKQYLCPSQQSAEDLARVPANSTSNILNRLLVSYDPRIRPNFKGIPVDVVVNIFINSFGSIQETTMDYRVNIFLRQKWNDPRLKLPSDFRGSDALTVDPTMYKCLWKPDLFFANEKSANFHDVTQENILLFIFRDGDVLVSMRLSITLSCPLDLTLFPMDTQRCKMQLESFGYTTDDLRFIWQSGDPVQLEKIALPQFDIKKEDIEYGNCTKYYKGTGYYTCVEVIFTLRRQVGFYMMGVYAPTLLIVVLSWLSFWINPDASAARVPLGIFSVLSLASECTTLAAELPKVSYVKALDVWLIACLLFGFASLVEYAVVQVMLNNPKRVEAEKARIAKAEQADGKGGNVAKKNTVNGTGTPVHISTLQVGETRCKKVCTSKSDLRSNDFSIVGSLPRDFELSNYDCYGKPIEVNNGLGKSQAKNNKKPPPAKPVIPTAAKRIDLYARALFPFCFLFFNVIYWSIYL
# Experimental: as §1, §2
# [4] = target: T4, nAChRα7 (Homo sapiens, UniProt P36544); test: Whole-cell patch-clamp of acetylcholine ion channel currents, transfected HEK293 cells; format: cell-based; details: nACHR; alkaloid 300 µM; mean ± SE
# T4 construct: expressed in transfected cells; host or cells: HEK293
# T4 sequence (P36544 23-502): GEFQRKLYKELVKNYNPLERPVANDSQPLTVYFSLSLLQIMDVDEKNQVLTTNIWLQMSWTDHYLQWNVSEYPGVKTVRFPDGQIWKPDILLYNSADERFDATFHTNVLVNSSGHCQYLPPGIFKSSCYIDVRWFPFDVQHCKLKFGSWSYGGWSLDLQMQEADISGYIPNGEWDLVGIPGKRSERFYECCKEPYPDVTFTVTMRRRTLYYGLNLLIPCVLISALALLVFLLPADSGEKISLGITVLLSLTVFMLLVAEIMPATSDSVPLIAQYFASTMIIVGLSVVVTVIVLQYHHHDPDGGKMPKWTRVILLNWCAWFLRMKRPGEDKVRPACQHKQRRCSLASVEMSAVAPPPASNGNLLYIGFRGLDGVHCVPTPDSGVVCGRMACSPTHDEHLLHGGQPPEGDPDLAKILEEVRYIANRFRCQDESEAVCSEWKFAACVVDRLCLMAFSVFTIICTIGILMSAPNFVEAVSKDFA
# Experimental: as §1
# For whole-cell recording, the […] contained 140 mM NaCl, 3.5 mM KCl, 1 mM MgCl2•6H2O, 2 mM CaCl2•2H2O, 10 mM D-glucose, 10 mM HEPES, and 1.25 mM NaH2PO4•2H2O, (pH 7.4). […] Electrode resistance (Rpip) was recorded, and the electrode was gently positioned on the cell surface with negative pressure applied to establish a GΩ-level high-resistance seal. […] Finally, slow capacitance compensation was performed, and experimental parameters such as series resistance (Rs) were recorded. […] We aimed to study the allosteric regulation of GABAAR and GlyR by Gelsemium alkaloids, so the effects of the alkaloids on Gly- or GABA-evoked currents were determined via co-application of subsaturated agonist concentrations (EC10 and EC50) together with the alkaloid. […]
# [5] = test system: GlyR; details: read-out: IC50 for GlyR; cited from earlier work
# [6] = test system: GABAAR; parameters: method as in PMID 32541553, PMID 32391682; details: read-out: EC50 for positive allosteric modulation of GABAAR; cited from earlier work
# [7] = α1GlyR, reduction of glycine-evoked current, n = 4, read-out: IC50
Molecule,percentage change in peak current modulation [1],activity on GlyR currents (in words) [2],percentage change in peak current modulation ([2]; α1GlyR),percentage change in peak current modulation [3],EC50 [1],Hillslope [1],IC50 [1],"IC50 [2, 7]",percentage change in peak current modulation [4],IC50 [5],EC50 [6],IC50 [2]
humantenirine,41.66% ± 0.53%,minimal effect,−11.75% ± 4.34%,−16.82% ± 4.41%,–,–,–,–,–,–,–,–
"CCC1=N[C@H]2C[C@@]3(C(=O)N(OC)c4ccccc43)[C@H]3C[C@@H]1[C@@H]2CO3 [Gelsenicine, gelsenicine]",58.63% ± 5.56%,minimal effect,−13.64% ± 4.34%,−10.44% ± 5.99%,192 µM,0.8002,–,–,–,–,–,–
"C=C[C@]12CN(C)[C@@H]3[C@H]4CO[C@H](C[C@H]41)[C@]1(C(=O)N(OC)c4ccccc41)[C@@H]32 [Gelsevirine, gelsevirine]",−55.82% ± 0.35%,strong activity,−98.89% ± 0.68%,−99.06% ± 0.62%,–,−1.110,252 µM,82.9 µM,0.75% ± 0.65%,–,–,–
O=C1C[C@@H]2OCC=C3CN4CC[C@]56c7ccccc7N1[C@H]5[C@H]2[C@H]3C[C@H]46 [strychnine],–,–,–,–,–,–,–,–,–,~0.18 µM,–,–
"C=C[C@@]12CN(C)[C@H]3C[C@]14C(=Nc1ccccc14)[C@H]1C[C@@H]2[C@@H]3CO1 [Koumine, koumine]",–,strong activity,−95.53% ± 0.70%,−87.29% ± 0.52%,–,–,–,9.59 µM,1.42% ± 0.00%,–,–,–
CN1C(=O)CN=C(c2ccccc2)c2cc(Cl)ccc21 [diazepam],–,–,–,–,–,–,–,–,–,–,~0.005 µM,–
"C=C[C@]12CN(C)[C@@H]3[C@H]4CO[C@H](C[C@H]41)[C@]1(C(=O)Nc4ccccc41)[C@@H]32 [Gelsemine, gelsemine]",−58.78% ± 1.74%,strong activity,−70.39% ± 4.85%,−92.18% ± 2.87%,–,−0.9158,171 µM,–,–,–,–,10.4 µM
